In patent publication US11512053B2, “Arginine methyltransferase inhibitors and uses thereof” (priority 2013, dated 2022):
Where two headings read alike, the source gives them in different places.

Biological target: T1, full-length human PRMT3 isoform 1 (GST-tagged) (Homo sapiens, UniProt O60678)
T1 construct: GST-tagged PRMT3; made in house; host or cells: E. coli BL21(DE3) Gold
Assay: PRMT3 Biochemical Assay (3H-SAM Flashplate, peptide substrate)
Excerpt: General Materials. S-adenosylmethionine (SAM), S-adenosylhomocysteine (SAH), bicine, Tween20, dimethylsulfoxide (DMSO), bovine skin gelatin (BSG),), isopropyl-β-D-thiogalactopyranoside (IPTG), and Tris(2-carboxyethyl)phosphine hydrochloride solution (TCEP) were purchased from Sigma-Aldrich at the highest level of purity possible. ^3H-SAM was purchase from American Radiolabeled Chemicals with a specific activity of 80 Ci/mmol. 384-well streptavidin Flashplates were purchased from PerkinElmer.
Substrates. Peptide containing the classic RMT substrate motif was synthesized with an N-terminal linker-affinity tag motif and a C-terminal amide cap by 21st Century Biochemicals. The peptide was purified by high-performance liquid chromatography (HPLC) to greater than 95% purity and confirmed by liquid chromatography mass spectrometry (LC-MS). The sequence was Biot-Ahx-[…]-amide (SEQ ID NO.:11).
Molecular Biology: Full-length human PRMT3 (NM_005788.3) isoform 1 transcript clone was amplified from an HEK 293 cDNA library and subcloned into pGEX-KG (GE Life Sciences). The resulting construct encodes an N-terminal GST tag and a thrombin cleavage sequence ([…] […] […] […] S) (SEQ ID NO.:12) fused directly to Cys 2 of PRMT3.
Protein Expression. E. coli (BL21(DE3) Gold, Stratagene) made competent by the CaCl2) method were transformed with the PRMT3 construct and ampicillin selection. Protein over-expression was accomplished by growing the PRMT3 expressing E. coli clone and inducing expression with 0.3 mM IPTG at 16° C. The culture was grown for 12 hours, harvested by centrifugation, and stored at −80° C. for purification.
Protein Purification. […] GST-tagged PRMT3 was eluted with 50 mM Tris, 2 mM glutathione, pH 7.1 and 50 mM Tris, 20 mM glutathione, pH 7.1. Pooled fractions were dialysed in 20 mM Tris, 50 mM NaCl, 5% glycerol, 1 mM EDTA, 1 mM DTT, pH7.5 (Buffer B) and applied to a Q Sepharose Fast Flow column. GST-tagged PRMT3 was eluted by 500 mM NaCl in buffer B. Pooled fractions were dialyzed in 25 mM phosphate buffer, 100 mM NaCl, 5% glycerol, 2 mM DTT, pH 6.8 (Buffer C) and loaded on to a ceramic hydroxyapatite column. GST-tagged PRMT3 eluted with 25-400 mM phosphate in buffer C. Protein was concentrated and buffer was exchanged to 20 mM Tris, 150 mM NaCl, 5% glycerol, 5 mM β-mercaptoethanol, pH7.8 by ultrafiltration. The purity of recovered protein was 70%.
General Procedure for PRMT3 Enzyme Assays on Peptide Substrates. The assays were all performed in a buffer consisting of 20 mM Bicine (pH=7.6), 1 mM TCEP, 0.005% BSG, and 0.002% Tween 20, prepared on the day of use. Compounds in 100% DMSO (1 ul) were spotted into a polypropylene 384-well V-bottom plates (Greiner) using a Platemate Plus outfitted with a 384-channel head (Thermo Scientific). DMSO (1 ul) was added to Columns 11, 12, 23, 24, rows A-H for the maximum signal control and 1 ul of SAH, a known product and inhibitor of PRMT3, was added to columns 11, 12, 23, 24, rows I-P for the minimum signal control. A cocktail (40 ul) containing the PRMT3 enzyme was added by Multidrop Combi (Thermo-Fisher). The compounds were allowed to incubate with PRMT3 for 30 min at room temperature, then a cocktail (10 ul) containing SAM and peptide was added to initiate the reaction (final volume=51 ul). The final concentrations of the components were as follows: PRMT3 was 0.5 nM, ^3H-SAM was 100 nM, non-radiolabeled SAM was 1.8 uM, peptide was 330 nM, SAH in the minimum signal control wells was 1 mM, and the DMSO concentration was 2%. The assays were stopped by the addition of potassium chloride (10 ul) to a final concentration of 100 mM. 50 ul of the reaction in the 384-well polypropylene plate was then transferred to a 384-well Flashplate and the biotinylated peptides were allowed to bind to the streptavidin surface for at least 1 hour before being washed once with 0.1% Tween20 in a Biotek ELx405 plate washer. […]

[1] = single experiment or average of multiple experiments

T1 sequence (O60678 with tags, fused parts or gaps): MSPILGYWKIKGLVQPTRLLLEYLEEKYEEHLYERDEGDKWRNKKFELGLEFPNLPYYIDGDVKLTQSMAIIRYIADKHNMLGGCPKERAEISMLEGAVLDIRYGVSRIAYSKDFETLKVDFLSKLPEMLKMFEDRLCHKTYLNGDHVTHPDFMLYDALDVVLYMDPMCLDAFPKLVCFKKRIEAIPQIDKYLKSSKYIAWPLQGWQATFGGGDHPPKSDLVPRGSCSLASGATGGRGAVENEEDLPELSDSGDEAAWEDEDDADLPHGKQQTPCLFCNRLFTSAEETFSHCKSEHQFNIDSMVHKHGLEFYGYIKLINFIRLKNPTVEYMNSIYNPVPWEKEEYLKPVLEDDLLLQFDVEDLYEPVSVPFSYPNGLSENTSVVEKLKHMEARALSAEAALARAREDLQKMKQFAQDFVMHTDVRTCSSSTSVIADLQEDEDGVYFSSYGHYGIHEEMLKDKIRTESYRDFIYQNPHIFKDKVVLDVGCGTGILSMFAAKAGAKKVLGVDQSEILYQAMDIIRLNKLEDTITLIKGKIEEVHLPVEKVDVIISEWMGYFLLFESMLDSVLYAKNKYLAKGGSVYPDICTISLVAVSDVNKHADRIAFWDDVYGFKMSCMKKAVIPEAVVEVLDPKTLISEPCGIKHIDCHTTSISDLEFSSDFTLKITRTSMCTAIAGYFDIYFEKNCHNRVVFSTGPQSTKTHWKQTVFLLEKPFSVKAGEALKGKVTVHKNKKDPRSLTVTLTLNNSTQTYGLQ

SMILES | IC50 [1] [µM] | IC50 [µM]
CN(CCN)Cc1c[nH]nc1/C=C/c1ccc(F)cc1F [Compound 13] | 3.62 | 
CN(CCN)Cc1c[nH]nc1/C=C/c1cccc(C(F)(F)F)c1 [Compound 16] | 5.79 | 
CNCCN(C)Cc1c[nH]nc1C#Cc1ccc(F)cc1 [Compound 4] | > 10 | > 10
CN(CCN)Cc1c[nH]nc1C1=CCOCC1 [Compound 10] | > 10 | > 10
CC(C)c1n[nH]cc1CN(C)CCN [Compound 21] | > 10 | > 10
CN(CCN)Cc1c[nH]nc1/C=C/Cc1ccccc1 [Compound 24] | > 10 | > 10
CN(CCN)Cc1c[nH]nc1C1CCCCC1 [Compound 22] | 6.46 | 
CN(CCN)Cc1c[nH]nc1C1CC1 [Compound 12] | > 10 | > 10
CN(CCN)Cc1c[nH]nc1/C=C/c1cc(C(F)(F)F)cc(C(F)(F)F)c1 [Compound 14] | 6.77 | 

Further compounds by falling IC50 [1], results first:

IC50 [1] [µM] | SMILES | IC50 [µM]
9.65 | CN(CCN)Cc1c[nH]nc1CCc1ccc(F)cc1 [Compound 23, N^1-((3-(4-fluorophenethyl)-1H-pyrazol-4-yl)methyl)-N^1-methylethane-1,2-diamine] | 
7.74 | COC/C=C/c1n[nH]cc1CN(C)CCN [Compound 19] | 
6.83 | CNCCN(C)Cc1c[nH]nc1C#Cc1cccc(OC)c1 [Compound 1] | 
5.91 | CNCCN(C)Cc1c[nH]nc1/C=C/c1ccc(OC)cc1 [Compound 7] | 
5.81 | Cc1ccc(/C=C/c2n[nH]cc2CN(C)CCN)cc1 [Compound 8] | 
3.94 | CNCCN(C)Cc1c[nH]nc1/C=C/c1ccc(C(F)(F)F)cc1 [Compound 6] | 
3 | CNCCN(C)Cc1c[nH]nc1C#Cc1ccc(C(C)(C)C)cc1 [Compound 2] | 
2.36 | COc1cccc(/C=C/c2n[nH]cc2CN(C)CCN)c1 [Compound 17] | 
2.34 | CN(CCN)Cc1c[nH]nc1/C=C/c1cc(F)cc(F)c1 [Compound 15] | 
2.34 | CN(CCN)Cc1c[nH]nc1/C=C/c1cccc(F)c1 [Compound 20] | 
1.75 | CN(CCN)Cc1c[nH]nc1/C=C/c1ccc(C(F)(F)F)cc1 [Compound 18] | 
1.58 | COc1cc(/C=C/c2n[nH]cc2CN(C)CCN)cc(OC)c1 [Compound 11] | 
1.45 | CNCCN(C)Cc1c[nH]nc1/C=C/c1ccc(-c2ccccc2)cc1 [Compound 5] | 
